In series [1] the target is MK2 (Homo sapiens, UniProt P49137). Put plainly: Kinase kinetic analysis of irreversible inhibition (Mobility Shift Assay, preincubation then 100-fold dilution). In kind it is biochemical. As to conditions: preincubation at 100 times the IC50, monitored continuously. The source says:
To assess its role as an irreversible MK2 kinase inhibitor, we conducted a kinetic study on compound 11. The well‐known reversible ATP‐competitive MK2 inhibitor, PF‐3644022, served as a negative control. […] The kinase‐inhibitor mixture was subsequently diluted by a factor of 100 with a reaction buffer that included both substrate peptide and ATP. Under these circumstances, the activity of MK2 kinase was continuously monitored by assessing the phosphorylated substrate percentage. […] The enzyme activity curve almost overlapped with the curve of background group, which included only the substrate peptide without inhibitors and MK2 kinase.
In the kinase kinetic analysis to elucidate the irreversible inhibition of MK2 by compound 11, a Mobility Shift Assay was conducted. […] The EZ Reader (Caliper Life Sciences, MA) was then used to assess the kinase activity of the mixture, which was monitored continuously for 1 hour.

Series [2] in a line: Cell viability assay (CCK-8), HEK293. In kind it is cell-based. As to conditions: HEK293 cells (embryo kidney), HEK293, human embryo kidney, read-out: IC50 (μM) mean ± SD, cytotoxicity. As to the method: In cellular experiments, cells are seeded into either 6-well or 96-well plates and incubated overnight, proceeding with treatments as described in the figure legends or methods section. The cell inoculation numbers are outlined as follows: For assays measuring cell viability, between 3,000 to 5,000 cells are seeded per well in 96-well plates. For other cellular assays, the seeding density ranges from 5×10^5 to 1×10^6 cells per well in 6-well plates.
Cells was plated into 96-well plates and incubated overnight prior to introduction of varying concentrations of compounds or control solvent. Following a 72-hour exposure period, cell viability was determined using a Cell Counting Kit-8 assay (Life-iLab, China). Dose-response curves were fitted using a four-parameter method facilitated by SoftMax Pro, which was subsequently used for the computation of IC50 values.

The subject of series [3] is MC38 tumor. Nature of the series: In vivo antitumor evaluation in MC38 tumor model. Details: species or system C57BL/6 mice. As to the method:
C57BL/6 mice, aged 6 weeks, were house and cared for in a controlled, specific pathogen‐free environment. MC38 tumor cells (3.5 × 10[5] in 100 µL) were administered to the mice via subcutaneous injection into the right flanks. Upon reaching a tumor volume between 50 and 100 mm^3, mice were randomized and assigned to either the vehicle control group or the specified treatment group (n = 7/group). The details regarding the administration of inhibitors and the measurement of tumors are delineated in the Supporting Information Methods.
The mice then received intraperitoneal injections of either the vehicle control or compound 11 (at dosages of 25 or 50 mg/kg) twice daily for 10 days. Tumor size was gauged every three days with a microcaliper, and the tumor volume (TV) was estimated using the formula: TV = (length × width^2)/2. Additionally, the individual Tumor Growth Inhibition value (TGI) was assessed on the last day of the experiment for mice treated with the drug in comparison to those treated with the vehicle. The formula used was 100 × {1 - [(VTreated Final day -VTreated Day 0)/(VControl Final day -VControl Day 0)].

For series [4], the system named is MRC1 and ARG-1 mRNA in THP-1 monocyte induced macrophages. Nature of the series: RT-PCR of M2 markers in IL-4/IL-13 stimulated THP-1 macrophages. It counts as cell-based, human. As to conditions: IL-4/IL-13 20 ng/mL. An excerpt: A previous study has reported that MK2 fostered M2‐like polarization of TAMs, driving a protumor and proangiogenic phenotype which in turn accelerates tumor progression.[21] We thus assessed the influence of compound 11 on macrophage polarization and function. Our experiments used human THP‐1 monocyte induced macrophages, mouse RAW264.7 macrophages, and mouse bone marrow‐derived macrophages (BMDM). These cells were induced into M2‐like macrophages using the classic IL‐4 and IL‐13 stimuli.
FIGURE 5 Inhibition of pro‐tumorigenic M2‐like polarization in macrophages by compound 11. (A–C) RT‐PCR analysis highlights the impact of compound 11 on MRC1 and ARG‐1 mRNA expression in various macrophage cells treated with IL‐4/IL‐13 alone or combined with compound 11 for 12 h or 24 h. […] Data are shown as the mean ± SD. ^* p < 0.05; ^*** p < 0.001 versus the vehicle group, determined by unpaired t test. […]
Total RNA was extracted from cultured cells using the EZ‐press RNA Purification Kit (EZBioscience). Complementary DNA was synthesized using the ABScript III RT Master Mix for qPCR with gDNA remover (ABclonal Technology) and was quantified with primers listed in Table S5. The relative mRNA expression levels were quantified through qPCR using the SYBR green gene expression assay (ABclonal Technology).

The structures appear in SMILES notation.

Chain of MK2 (P49137 whole entry): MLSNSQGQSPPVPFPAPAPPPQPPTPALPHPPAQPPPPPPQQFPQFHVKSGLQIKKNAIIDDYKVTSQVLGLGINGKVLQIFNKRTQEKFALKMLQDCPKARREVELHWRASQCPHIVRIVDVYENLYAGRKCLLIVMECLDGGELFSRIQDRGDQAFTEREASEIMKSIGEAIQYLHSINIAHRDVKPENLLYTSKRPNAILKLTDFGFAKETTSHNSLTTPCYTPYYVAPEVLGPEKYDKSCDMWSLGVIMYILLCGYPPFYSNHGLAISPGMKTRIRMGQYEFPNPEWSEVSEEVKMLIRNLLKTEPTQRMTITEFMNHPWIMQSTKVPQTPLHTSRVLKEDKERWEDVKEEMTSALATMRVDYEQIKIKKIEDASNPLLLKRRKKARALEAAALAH

As to `C=CC(=O)Nc1cc(-c2cc(-c3cc4c([nH]3)CCNC4=O)ccn2)ccc1OC(F)(F)F` [compound 11], the “MK2 kinase activity after 30 min preincubation with inhibitor and 100-fold dilution” value in series [1] is “sustained and potent inhibition of kinase activity”. In addition, the IC50 at 72 h in series [2] is 29.9 ± 7.2 µM. Also, the “tumor growth inhibition rate (TGI)” value in series [3] (25 mg/kg bid x10, ip) was found to be 47.5%; in series [3] (50 mg/kg bid x10, ip) it was 64.0%. The “effect on transcriptional level of MRC1 and ARG-1” value in series [4] is listed as “significantly suppressed”.

What is called IC50 is the concentration that inhibits the measured activity by half.

The record behind these values is article PMC11233931, “Remodeling tumor‐associated macrophage for anti‐cancer effects by rational design of irreversible inhibition of mitogen‐activated protein kinase‐activated protein kinase 2” (MedComm, 2024).
